{"source": "ChEMBL document CHEMBL3860054", "about": "“Design, synthesis and biological evaluation of novel alkyl diamine linked bivalent β-carbolines as angiogenesis inhibitors” (Bioorg Med Chem Lett, 2016)", "key": {"[1]": {"experiment": "Solubility of compound in water", "assay_type": "physicochemical"}, "[2]": {"experiment": "Antiproliferative activity against human EAhy926 cells assessed as reduction in cell viability measured after 48 hrs by MTT assay", "assay_type": "functional, cell-based", "conditions": "EA.hy 926, 48 h"}, "EA.hy 926 [3]": {"test_system": "EA.hy 926", "experiment": "Antiangiogenic activity in human EAhy926 cells assessed as inhibition of VEGF-induced cell migration measured after 24 hrs by wound healing assay relative to control", "assay_type": "functional, cell-based"}, "Gallus gallus": {"species": "Gallus gallus", "experiment": "Antiangiogenic activity in chicken chorioallantoic membrane at 30 uM/disc after 48 hrs by microscopic analysis", "assay_type": "functional"}, "EA.hy 926 [4]": {"test_system": "EA.hy 926", "experiment": "Antiangiogenic activity in human EAhy926 cells assessed as inhibition of VEGF-induced capillary-like tube formation on matrigel after 24 hrs by phase-contrast microscopy", "assay_type": "functional, cell-based"}}, "note": "Calls of active or inactive are those of the source. The rule behind the calls is not given here."}
{"compound": "Cl.Fc1ccc(Cn2c3ccccc3c3cc(CNCCCCCCNCc4cc5c6ccccc6n(Cc6ccc(F)cc6)c5cn4)ncc32)cc1", "values": [{"measurement": "solubility", "setting": "[1]", "result": "> 10000", "unit": "µg/mL"}, {"measurement": "IC50", "setting": "[2]", "result": 4.08, "unit": "µM"}]}
{"compound": "CC(C)n1c2ccccc2c2cc(CNCCCCCCNCc3cc4c5ccccc5n(C(C)C)c4cn3)ncc21.Cl", "values": [{"measurement": "solubility", "setting": "[1]", "result": "> 10000", "unit": "µg/mL"}, {"measurement": "IC50", "setting": "[2]", "result": 2.74, "unit": "µM"}]}
{"compound": "CC(C)Cn1c2ccccc2c2cc(CNCCCCCCNCc3cc4c5ccccc5n(CC(C)C)c4cn3)ncc21.Cl", "values": [{"measurement": "solubility", "setting": "[1]", "result": "> 10000", "unit": "µg/mL"}, {"measurement": "IC50", "setting": "[2]", "result": 6.3, "unit": "µM"}]}
{"compound": "COc1ccc(/C=C\\c2cc(OC)c(OC)c(OC)c2)cc1OP(=O)(O)O", "note": "[FOSBRETABULIN]", "values": [{"measurement": "IC50", "setting": "[2]", "result": 6.4, "unit": "µM"}]}
{"compound": "CCCCn1c2ccccc2c2cc(CNCCCCCCNCc3cc4c5ccccc5n(CCCC)c4cn3)ncc21.Cl", "values": [{"measurement": "solubility", "setting": "[1]", "result": "> 10000", "unit": "µg/mL"}, {"measurement": "IC50", "setting": "[2]", "result": 4.82, "unit": "µM"}]}
{"compound": "CCCCn1c2ccccc2c2cc(CNCCCNCc3cc4c5ccccc5n(CCCC)c4cn3)ncc21.Cl", "values": [{"measurement": "solubility", "setting": "[1]", "result": "> 10000", "unit": "µg/mL"}, {"measurement": "IC50", "setting": "[2]", "result": "> 10", "unit": "µM"}]}
{"compound": "CCCCn1c2ccccc2c2cc(CNCCCCCCNCc3cc4c5ccccc5n(CCCC)c4c(C)n3)nc(C)c21.Cl", "values": [{"measurement": "solubility", "setting": "[1]", "result": "> 10000", "unit": "µg/mL"}, {"measurement": "IC50", "setting": "[2]", "result": 2.74, "unit": "µM"}]}
{"compound": "CC(C)n1c2ccccc2c2cc(CNCCCCNCc3cc4c5ccccc5n(C(C)C)c4cn3)ncc21.Cl", "values": [{"measurement": "solubility", "setting": "[1]", "result": "> 10000", "unit": "µg/mL"}, {"measurement": "IC50", "setting": "[2]", "result": 2.48, "unit": "µM"}]}
{"compound": "Cl.Clc1cccc(Cn2c3ccccc3c3cc(CNCCCCCNCc4cc5c6ccccc6n(Cc6cccc(Cl)c6)c5cn4)ncc32)c1", "values": [{"measurement": "solubility", "setting": "[1]", "result": "> 10000", "unit": "µg/mL"}, {"measurement": "inhibition", "setting": "EA.hy 926 [3]", "result": "Dose-dependent effect"}, {"measurement": "Activity", "setting": "Gallus gallus", "result": "Active"}, {"measurement": "inhibition", "setting": "EA.hy 926 [4]", "result": "Dose-dependent effect"}, {"measurement": "IC50", "setting": "[2]", "result": "1.06 to 1.1", "unit": "µM"}]}
{"compound": "Cl.c1ccc(CCCn2c3ccccc3c3cc(CNCCCCCCNCc4cc5c6ccccc6n(CCCc6ccccc6)c5cn4)ncc32)cc1", "values": [{"measurement": "solubility", "setting": "[1]", "result": "> 10000", "unit": "µg/mL"}, {"measurement": "IC50", "setting": "[2]", "result": 2.35, "unit": "µM"}]}
{"compound": "Cl.Clc1cccc(Cn2c3ccccc3c3cc(CNCCCCNCc4cc5c6ccccc6n(Cc6cccc(Cl)c6)c5cn4)ncc32)c1", "values": [{"measurement": "solubility", "setting": "[1]", "result": "> 10000", "unit": "µg/mL"}, {"measurement": "IC50", "setting": "[2]", "result": 6.86, "unit": "µM"}]}
{"compound": "Cc1nc(CNCCCCNCc2cc3c4ccccc4n(Cc4cccc(Cl)c4)c3c(C)n2)cc2c3ccccc3n(Cc3cccc(Cl)c3)c12.Cl", "values": [{"measurement": "solubility", "setting": "[1]", "result": "> 10000", "unit": "µg/mL"}, {"measurement": "IC50", "setting": "[2]", "result": 4.81, "unit": "µM"}]}
{"compound": "Cl.Cn1c2ccccc2c2cc(CNCCCCCCNCc3cc4c5ccccc5n(C)c4cn3)ncc21", "values": [{"measurement": "solubility", "setting": "[1]", "result": "> 10000", "unit": "µg/mL"}, {"measurement": "IC50", "setting": "[2]", "result": 2.58, "unit": "µM"}]}
{"compound": "CCn1c2ccccc2c2cc(CNCCCCNCc3cc4c5ccccc5n(CC)c4cn3)ncc21.Cl", "values": [{"measurement": "solubility", "setting": "[1]", "result": "> 10000", "unit": "µg/mL"}, {"measurement": "IC50", "setting": "[2]", "result": "> 10", "unit": "µM"}]}
{"compound": "CCCCn1c2ccccc2c2cc(CNCCCCNCc3cc4c5ccccc5n(CCCC)c4cn3)ncc21.Cl", "values": [{"measurement": "solubility", "setting": "[1]", "result": "> 10000", "unit": "µg/mL"}, {"measurement": "IC50", "setting": "[2]", "result": 2.17, "unit": "µM"}]}
{"compound": "CC(C)Cn1c2ccccc2c2cc(CNCCCCNCc3cc4c5ccccc5n(CC(C)C)c4cn3)ncc21.Cl", "values": [{"measurement": "solubility", "setting": "[1]", "result": "> 10000", "unit": "µg/mL"}, {"measurement": "IC50", "setting": "[2]", "result": 3.08, "unit": "µM"}]}
{"compound": "CCn1c2ccccc2c2cc(CNCCCCCCNCc3cc4c5ccccc5n(CC)c4cn3)ncc21.Cl", "values": [{"measurement": "solubility", "setting": "[1]", "result": "> 10000", "unit": "µg/mL"}, {"measurement": "IC50", "setting": "[2]", "result": 2.59, "unit": "µM"}]}
{"compound": "Cl.c1ccc(Cn2c3ccccc3c3cc(CNCCCCCCNCc4cc5c6ccccc6n(Cc6ccccc6)c5cn4)ncc32)cc1", "values": [{"measurement": "solubility", "setting": "[1]", "result": "> 10000", "unit": "µg/mL"}, {"measurement": "IC50", "setting": "[2]", "result": 4.76, "unit": "µM"}]}
{"compound": "CCCCCCCCn1c2ccccc2c2cc(CNCCCCNCc3cc4c5ccccc5n(CCCCCCCC)c4cn3)ncc21.Cl", "values": [{"measurement": "solubility", "setting": "[1]", "result": "> 10000", "unit": "µg/mL"}, {"measurement": "IC50", "setting": "[2]", "result": 4.86, "unit": "µM"}]}
{"compound": "Cc1nc(CNCCCCCCNCc2cc3c4ccccc4n(Cc4ccccc4)c3c(C)n2)cc2c3ccccc3n(Cc3ccccc3)c12.Cl", "values": [{"measurement": "solubility", "setting": "[1]", "result": "> 10000", "unit": "µg/mL"}, {"measurement": "IC50", "setting": "[2]", "result": 1.39, "unit": "µM"}]}
{"compound": "Cl.c1ccc(Cn2c3ccccc3c3cc(CNCCCNCc4cc5c6ccccc6n(Cc6ccccc6)c5cn4)ncc32)cc1", "values": [{"measurement": "solubility", "setting": "[1]", "result": "> 10000", "unit": "µg/mL"}, {"measurement": "IC50", "setting": "[2]", "result": "> 10", "unit": "µM"}]}
{"compound": "Cl.Fc1ccc(Cn2c3ccccc3c3cc(CNCCCCCNCc4cc5c6ccccc6n(Cc6ccc(F)cc6)c5cn4)ncc32)cc1", "values": [{"measurement": "solubility", "setting": "[1]", "result": "> 10000", "unit": "µg/mL"}, {"measurement": "IC50", "setting": "[2]", "result": 4.14, "unit": "µM"}]}
{"compound": "Cc1nc(CNCCCCCCNCc2cc3c4ccccc4n(CC(C)C)c3c(C)n2)cc2c3ccccc3n(CC(C)C)c12.Cl", "values": [{"measurement": "solubility", "setting": "[1]", "result": "> 10000", "unit": "µg/mL"}, {"measurement": "IC50", "setting": "[2]", "result": 2.68, "unit": "µM"}]}
{"compound": "Cl.c1ccc(CCCn2c3ccccc3c3cc(CNCCCCNCc4cc5c6ccccc6n(CCCc6ccccc6)c5cn4)ncc32)cc1", "values": [{"measurement": "solubility", "setting": "[1]", "result": "> 10000", "unit": "µg/mL"}, {"measurement": "IC50", "setting": "[2]", "result": 4.18, "unit": "µM"}]}
{"compound": "CCCCCCCCn1c2ccccc2c2cc(CNCCCCCNCc3cc4c5ccccc5n(CCCCCCCC)c4cn3)ncc21.Cl", "values": [{"measurement": "solubility", "setting": "[1]", "result": "> 10000", "unit": "µg/mL"}, {"measurement": "IC50", "setting": "[2]", "result": 3.77, "unit": "µM"}]}
{"compound": "Cc1nc(CNCCCCNCc2cc3c4ccccc4n(CCCc4ccccc4)c3c(C)n2)cc2c3ccccc3n(CCCc3ccccc3)c12.Cl", "values": [{"measurement": "solubility", "setting": "[1]", "result": "> 10000", "unit": "µg/mL"}, {"measurement": "IC50", "setting": "[2]", "result": 2.11, "unit": "µM"}]}
{"compound": "Cl.Clc1cccc(Cn2c3ccccc3c3cc(CNCCCCCCNCc4cc5c6ccccc6n(Cc6cccc(Cl)c6)c5cn4)ncc32)c1", "values": [{"measurement": "solubility", "setting": "[1]", "result": "> 10000", "unit": "µg/mL"}, {"measurement": "IC50", "setting": "[2]", "result": 2.98, "unit": "µM"}]}
